Test results from ChEMBL document CHEMBL1177819, “Monastrol analogs: a synthesis of pyrazolopyridine, benzopyranopyrazolopyridine, and oxygen-bridged azolopyrimidine derivatives and their biological screening” (Bioorg Med Chem Lett, 2010).
Calls of active or inactive are those of the source. The rule behind the calls is not given here.

Legend:
[1] = target: T1, Kinesin-like protein KIF11 (Homo sapiens) (UniProt P52732); assay: Inhibition of kinasin spindle protein by ATPase assay
T1 sequence (whole entry): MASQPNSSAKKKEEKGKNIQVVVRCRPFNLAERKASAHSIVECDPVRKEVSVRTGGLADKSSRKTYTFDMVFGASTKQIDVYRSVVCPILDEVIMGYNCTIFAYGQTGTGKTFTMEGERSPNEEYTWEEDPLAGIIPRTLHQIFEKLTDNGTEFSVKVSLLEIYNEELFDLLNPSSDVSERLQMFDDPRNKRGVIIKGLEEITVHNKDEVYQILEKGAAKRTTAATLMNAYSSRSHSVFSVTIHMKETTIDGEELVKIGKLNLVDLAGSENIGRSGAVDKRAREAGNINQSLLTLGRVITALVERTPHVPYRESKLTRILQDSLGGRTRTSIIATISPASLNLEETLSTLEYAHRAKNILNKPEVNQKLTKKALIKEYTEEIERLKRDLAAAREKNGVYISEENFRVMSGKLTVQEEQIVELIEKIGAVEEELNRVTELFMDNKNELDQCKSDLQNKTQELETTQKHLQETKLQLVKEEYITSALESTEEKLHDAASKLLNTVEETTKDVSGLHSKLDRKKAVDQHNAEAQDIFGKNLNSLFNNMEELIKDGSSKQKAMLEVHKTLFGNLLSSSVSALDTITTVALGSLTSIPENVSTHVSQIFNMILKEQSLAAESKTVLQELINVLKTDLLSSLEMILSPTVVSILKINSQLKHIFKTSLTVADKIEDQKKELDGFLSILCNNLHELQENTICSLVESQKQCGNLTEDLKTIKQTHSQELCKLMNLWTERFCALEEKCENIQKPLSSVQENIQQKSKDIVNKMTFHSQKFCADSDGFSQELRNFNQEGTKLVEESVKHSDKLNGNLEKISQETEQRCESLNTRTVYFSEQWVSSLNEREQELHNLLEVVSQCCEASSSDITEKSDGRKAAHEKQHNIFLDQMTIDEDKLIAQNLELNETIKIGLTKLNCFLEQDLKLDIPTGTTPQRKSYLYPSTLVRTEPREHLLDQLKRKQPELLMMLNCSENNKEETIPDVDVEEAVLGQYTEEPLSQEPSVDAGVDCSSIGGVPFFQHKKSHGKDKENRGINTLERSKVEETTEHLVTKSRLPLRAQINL

[2] = target: T1, Kinesin-like protein KIF11 (Homo sapiens); assay: Inhibition of kinasin spindle protein in human HeLa cells assessed as inhibition of induction of mitotic arrest; assay type: cell-based
HeLa = assay: Toxicity in human HeLa cells at 100 uM; assay type: cell-based
[3] = Toxicity in african green monkey BSC1 cells at 100 uM; assay type: cell-based; conditions: chlorocebus aethiops, bsc-1, 100 µM

| SMILES | inhibition [1] | inhibition [2] | Activity (HeLa) | Activity [3] |
| --- | --- | --- | --- | --- |
| CC1=C2C(=O)Oc3ccccc3C2c2c(n[nH]c2C)N1 (centres undefined) | inactive | inactive | – | – |
| C[C@@]12C[C@@H](c3ccccc3O1)n1nnnc1N2 | inactive | inactive | – | – |
| COC(=O)C1=C(C)Nc2n[nH]c(C)c2C1c1cccc(O)c1 (centres undefined) | inactive | inactive | – | – |
| C[C@@]12C[C@@H](c3ccccc3O1)n1c(nc3ccccc31)N2 | inactive | inactive | Toxic | Toxic |

More lines, main results first:

| inhibition [1] | inhibition [2] | SMILES | Activity (HeLa) | Activity [3] |
| --- | --- | --- | --- | --- |
| inactive | inactive | C[C@@]12C[C@@H](c3ccccc3O1)N1CCSC1=N2 | – | – |
| inactive | inactive | Cc1cc2n(n1)[C@H]1C[C@@](C)(N2)Oc2ccccc21 | – | – |
